# Measured values reported in publication PMC12406256, “Food Additives Inhibit Intestinal Drug Transporters but Have Limited Effect on In Vitro Drug Permeability” (Molecular Pharmaceutics, 2025).
# Read-outs that look alike come from different tables or passages of the source.
# Legend:
# [1] = target: T1, OATP2B1 (Homo sapiens, UniProt O94956); conditions: previously characterized inhibitors, ref previous studies, cited from earlier work; for Ki: read-out: K i, OATP2B1
# T1 construct: expressed in transfected cells; host or cells: HEK293 cells (ATCC) transduced with recombinant OATP2B1 baculovirus
# T1 sequence (O94956 1-709): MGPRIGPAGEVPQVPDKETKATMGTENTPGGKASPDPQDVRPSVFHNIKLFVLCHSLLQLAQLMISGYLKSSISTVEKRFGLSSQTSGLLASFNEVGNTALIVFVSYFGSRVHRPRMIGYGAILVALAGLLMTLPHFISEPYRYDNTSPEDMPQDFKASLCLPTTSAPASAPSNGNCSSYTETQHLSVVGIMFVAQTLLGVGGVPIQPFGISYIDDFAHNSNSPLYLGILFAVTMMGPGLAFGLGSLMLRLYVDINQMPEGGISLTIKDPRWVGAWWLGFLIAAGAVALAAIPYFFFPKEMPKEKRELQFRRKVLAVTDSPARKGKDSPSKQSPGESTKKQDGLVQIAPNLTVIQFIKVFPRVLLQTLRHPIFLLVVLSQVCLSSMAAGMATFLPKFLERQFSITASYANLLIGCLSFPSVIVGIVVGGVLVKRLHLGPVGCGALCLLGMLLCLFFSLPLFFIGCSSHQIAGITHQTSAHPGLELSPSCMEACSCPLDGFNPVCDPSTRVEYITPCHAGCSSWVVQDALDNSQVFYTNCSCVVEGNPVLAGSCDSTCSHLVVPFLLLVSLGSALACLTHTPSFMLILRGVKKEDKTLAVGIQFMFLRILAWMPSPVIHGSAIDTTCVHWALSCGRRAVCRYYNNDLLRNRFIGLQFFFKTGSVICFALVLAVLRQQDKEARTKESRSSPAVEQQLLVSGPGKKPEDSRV
# [2] = system: Caco-2 cells; assay: in vitro; conditions: for effect on sulfasalazine permeability (P app): Caco-2
# Method: (§1) Caco-2 cells were cultured on 12-well Transwell polycarbonate membrane inserts with a 0.4 μm pore size (Corning Incorporated, Kennebunk, ME) at 37 °C and 5% CO2 for 21–24 days prior to the experiment as described in Hubatsch et al. The culture medium (DMEM, 10% FBS, 1% MEM nonessential amino acids, 100 U/mL penicillin–streptomycin) was changed every second day. Transepithelial electrical resistance (TEER) was measured before and after the permeability assay with a Millicell-ERS electrode (Millipore, Bedford, MA) attached to an epithelial volt ohm meter (EVOM, World Precision Instruments, Sarasota, FL). The permeability assay was performed according to a previously published protocol. […] Sulfasalazine is a substrate of BCRP and OATP2B1. , The DMSO concentration was 0.45–1.5%. Before the experiment, inserts were washed and preincubated in the transport buffer for 20 min shaking at 37 °C. Sulfasalazine and LY permeability was measured in the apical to basolateral direction at five time points (20, 40, 60, 90, and 120 min) and, additionally, in the basolateral to apical direction to calculate the efflux ratio. […] […] LY (250 μM) was added on the donor side of all inserts to measure the integrity of the cell monolayer. Before analysis, samples were centrifuged at 2755g for 30 min, and donor solution and mass balance samples were diluted 1:100. LY fluorescence was measured with a Varioskan LUX microplate reader (Thermo Fisher Scientific) at 430 nm excitation and 538 nm emission. Sulfasalazine was analyzed with ultra-performance liquid chromatography (UPLC) using a Syncronis C18 column (1.7 μm particle size, 50 × 2.1 mm + 0.2 μm Waters online filter) (Thermo Fisher Scientific) coupled with Waters Acquity UPLC interfaced with a PDA detector both controlled by the Waters Empower software version 3. The UPLC was operated in gradient mode at 354 nm. Solvents were 0.015 M phosphate buffer pH 2 (A), acetonitrile (B), 1:1 acetonitrile/methanol (strong needle wash), and 20% acetonitrile (weak needle wash). Column temperature was 30 °C, injection volume was 10 μL, retention time was 1.46 min, and flow rate was 0.5 mL/min. The gradient was 25% B → 70% B (0–3 min), 70% B → 25% B (3.00–3.01 min), and 25% B (3.01–4 min). The data were collected for the first 180 s of each UPLC run.
# (§2) In the Caco-2 permeability assay, the apparent permeability (P app) of sulfasalazine was calculated using the following equation: Papp=(dQ/dt)(1/A×C0) where dQ/dt is the rate of permeation across the cells (nmol/min), A is the surface area of the filter (1.12 cm^2), and C 0 is the initial concentration in the donor chamber (μM). The efflux ratio of sulfasalazine was calculated by dividing the P app in the basolateral to the apical direction by the P app in the apical to basolateral direction. The TEER for each cell insert was calculated before and after the experiment by multiplying the mean resistance of three measurements by the surface area of the filter (1.12 cm^2). Mass balance was calculated by dividing the […]. All experiments were done in triplicate wells, and the IC50 and Caco-2 permeability assays were repeated three times.
# [3] = system: OATP2B1; parameters: method as in Zou et al.; conditions: 25 mg/kg; P-gp-deficient mice; ref Zou et al.; cited from earlier work
# [4] = target: T2, MRP2 (Homo sapiens, UniProt Q92887); parameters: method as in previous studies; conditions: previously characterized inhibitors; ref previous studies; read-out: IC50 (95% CI), MRP2; cited from earlier work
# T2 construct: made in house; host or cells: Spodoptera frugiperda Sf9 cells, crude membrane vesicles
# T2 sequence (Q92887 whole entry): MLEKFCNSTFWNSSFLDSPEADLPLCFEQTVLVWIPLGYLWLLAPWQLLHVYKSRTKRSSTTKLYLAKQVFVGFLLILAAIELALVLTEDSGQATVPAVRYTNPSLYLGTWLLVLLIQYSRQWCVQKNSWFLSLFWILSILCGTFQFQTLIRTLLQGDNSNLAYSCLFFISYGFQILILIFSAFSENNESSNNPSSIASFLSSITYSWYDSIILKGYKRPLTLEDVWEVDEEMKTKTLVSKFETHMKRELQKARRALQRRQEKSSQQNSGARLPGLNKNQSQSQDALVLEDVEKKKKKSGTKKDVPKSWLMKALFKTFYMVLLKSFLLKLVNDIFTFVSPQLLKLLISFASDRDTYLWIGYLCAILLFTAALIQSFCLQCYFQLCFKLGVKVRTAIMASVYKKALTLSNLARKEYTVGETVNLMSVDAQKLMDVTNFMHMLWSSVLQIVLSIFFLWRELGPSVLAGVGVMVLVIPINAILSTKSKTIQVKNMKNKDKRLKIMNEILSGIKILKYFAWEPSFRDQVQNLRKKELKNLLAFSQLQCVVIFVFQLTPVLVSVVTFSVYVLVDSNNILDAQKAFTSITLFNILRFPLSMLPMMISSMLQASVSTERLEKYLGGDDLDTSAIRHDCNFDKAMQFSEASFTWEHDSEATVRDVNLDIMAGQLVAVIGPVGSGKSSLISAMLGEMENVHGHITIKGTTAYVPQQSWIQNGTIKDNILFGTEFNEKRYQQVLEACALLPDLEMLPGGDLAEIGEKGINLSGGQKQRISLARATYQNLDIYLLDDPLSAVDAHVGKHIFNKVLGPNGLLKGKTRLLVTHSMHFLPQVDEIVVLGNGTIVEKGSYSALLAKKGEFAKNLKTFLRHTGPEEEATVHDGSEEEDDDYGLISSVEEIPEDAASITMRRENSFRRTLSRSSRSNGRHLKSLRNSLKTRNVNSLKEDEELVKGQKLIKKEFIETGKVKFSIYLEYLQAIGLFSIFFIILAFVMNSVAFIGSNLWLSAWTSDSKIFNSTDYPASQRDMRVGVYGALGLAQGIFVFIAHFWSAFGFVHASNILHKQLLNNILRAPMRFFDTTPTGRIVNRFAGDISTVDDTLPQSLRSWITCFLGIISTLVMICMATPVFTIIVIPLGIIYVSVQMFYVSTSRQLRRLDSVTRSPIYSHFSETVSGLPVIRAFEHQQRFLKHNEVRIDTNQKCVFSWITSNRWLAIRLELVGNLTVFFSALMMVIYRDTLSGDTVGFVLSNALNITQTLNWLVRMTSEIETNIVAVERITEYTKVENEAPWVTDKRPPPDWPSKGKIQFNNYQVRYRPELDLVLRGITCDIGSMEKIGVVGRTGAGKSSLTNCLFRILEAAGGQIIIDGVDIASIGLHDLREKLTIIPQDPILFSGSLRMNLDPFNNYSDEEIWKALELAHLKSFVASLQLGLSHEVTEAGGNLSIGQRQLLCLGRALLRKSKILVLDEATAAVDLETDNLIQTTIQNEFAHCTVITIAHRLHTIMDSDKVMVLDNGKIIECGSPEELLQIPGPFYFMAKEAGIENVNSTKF
# [5] = target: T3, BCRP (Homo sapiens, UniProt Q9UNQ0); conditions: read-out: IC50 (95% CI), BCRP; previously characterized inhibitors; ref previous studies; cited from earlier work
# T3 sequence (Q9UNQ0 1-655): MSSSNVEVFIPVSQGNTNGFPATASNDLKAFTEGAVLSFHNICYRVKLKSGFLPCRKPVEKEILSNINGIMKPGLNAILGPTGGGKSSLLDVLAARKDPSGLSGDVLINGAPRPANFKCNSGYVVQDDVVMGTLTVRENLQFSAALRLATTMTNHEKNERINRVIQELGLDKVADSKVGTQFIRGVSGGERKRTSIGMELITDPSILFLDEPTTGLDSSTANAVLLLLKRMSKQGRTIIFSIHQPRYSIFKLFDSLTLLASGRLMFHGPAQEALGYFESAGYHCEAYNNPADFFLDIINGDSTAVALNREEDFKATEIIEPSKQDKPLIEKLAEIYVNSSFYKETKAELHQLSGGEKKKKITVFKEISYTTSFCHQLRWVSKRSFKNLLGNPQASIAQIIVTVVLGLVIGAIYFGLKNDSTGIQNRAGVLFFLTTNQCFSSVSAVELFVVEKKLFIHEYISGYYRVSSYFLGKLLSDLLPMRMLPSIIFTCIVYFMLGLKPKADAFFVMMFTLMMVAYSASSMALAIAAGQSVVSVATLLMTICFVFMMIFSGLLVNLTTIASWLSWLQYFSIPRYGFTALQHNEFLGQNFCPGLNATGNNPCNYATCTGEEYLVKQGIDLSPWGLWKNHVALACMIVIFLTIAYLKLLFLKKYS
# [6] = system: Caco-2 cells; parameters: method as in not given; conditions: ref not given; cited from earlier work
# [7] = parameters: method as in not given; conditions: rats; ref not given; cited from earlier work
# [8] = target: T2, MRP2; assay: Vesicular transport assay, MRP2 (CDCF substrate); format: biochemical; conditions: food additive 50 μM; CDCF 5 μM; n = 1
# Method: Transport inhibition by 22 food additives was tested with Spodoptera frugiperda (Sf9) derived crude membrane vesicles expressing BCRP, MRP2, or P-gp produced in-house. […] Vesicles (50 μg total protein/well) were diluted in an assay buffer (40 mM MOPS–Tris pH 7.0, 60 mM KCl, and 6 mM MgCl2) with the substrate, and food additives (final concentration of 50 μM) in DMSO were added to the mixture. After preincubation, either the assay buffer or Mg-ATP solution (final concentration 4 mM) was added to the plate to start the reaction. The plate was incubated at 37 °C, and the reaction was stopped with an ice-cold washing mixture (40 mM MOPS-Tris pH 7.0 and 70 mM KCl). Samples were moved to a MultiScreenHTS-FB Plate Glass fiber 1.0 μm/0.65 μm Durapore filter plate (Millipore, USA), and the wells were washed five times with the ice-cold washing mixture. For BCRP and MRP2, the fluorescent substrate was eluted from the filters with 100 μL 0.1 M NaOH. […] The amount of the substrate accumulated into the vesicles was measured by fluorescent detection using a Varioskan LUX microplate reader (Thermo Fisher Scientific, Finland) (Table ).
# (§3) For the efflux transporters, the relative transport was calculated as relativetransport(%ofcontrol)=transportinh,ATP−transportinh,noATP/transportDMSO,ATP−transportDMSO,noATP×100% where transportinh,ATP and transportinh,no ATP are the transport rates in the presence of food additives with or without ATP, respectively, and transportDMSO,ATP and transportDMSO,no ATP are the corresponding transport rates in the presence of the vehicle (DMSO) with or without ATP.
# (§4) The half-maximal inhibitory concentrations (IC50) were calculated with GraphPad Prism version 9.0.2 (GraphPad Software, San Diego, CA) using nonlinear regression that fits the data to a four-parameter dose–response curve: relativetransport=minimum+maximum−minimum/1+([I]/IC50)^h where minimum and maximum describe the plateaus of minimal and maximal relative transport (%), [I] is the concentration of inhibitor, and h is the Hill slope, which describes the steepness of the slope.
# [9] = target: P-gp (Homo sapiens, UniProt P08183); assay: Vesicular transport assay, P-gp (N-methyl-quinidine substrate); conditions: food additive 50 μM; N-methyl-quinidine 2 μM; n = 1
# P-gp, sequence (P08183 whole entry): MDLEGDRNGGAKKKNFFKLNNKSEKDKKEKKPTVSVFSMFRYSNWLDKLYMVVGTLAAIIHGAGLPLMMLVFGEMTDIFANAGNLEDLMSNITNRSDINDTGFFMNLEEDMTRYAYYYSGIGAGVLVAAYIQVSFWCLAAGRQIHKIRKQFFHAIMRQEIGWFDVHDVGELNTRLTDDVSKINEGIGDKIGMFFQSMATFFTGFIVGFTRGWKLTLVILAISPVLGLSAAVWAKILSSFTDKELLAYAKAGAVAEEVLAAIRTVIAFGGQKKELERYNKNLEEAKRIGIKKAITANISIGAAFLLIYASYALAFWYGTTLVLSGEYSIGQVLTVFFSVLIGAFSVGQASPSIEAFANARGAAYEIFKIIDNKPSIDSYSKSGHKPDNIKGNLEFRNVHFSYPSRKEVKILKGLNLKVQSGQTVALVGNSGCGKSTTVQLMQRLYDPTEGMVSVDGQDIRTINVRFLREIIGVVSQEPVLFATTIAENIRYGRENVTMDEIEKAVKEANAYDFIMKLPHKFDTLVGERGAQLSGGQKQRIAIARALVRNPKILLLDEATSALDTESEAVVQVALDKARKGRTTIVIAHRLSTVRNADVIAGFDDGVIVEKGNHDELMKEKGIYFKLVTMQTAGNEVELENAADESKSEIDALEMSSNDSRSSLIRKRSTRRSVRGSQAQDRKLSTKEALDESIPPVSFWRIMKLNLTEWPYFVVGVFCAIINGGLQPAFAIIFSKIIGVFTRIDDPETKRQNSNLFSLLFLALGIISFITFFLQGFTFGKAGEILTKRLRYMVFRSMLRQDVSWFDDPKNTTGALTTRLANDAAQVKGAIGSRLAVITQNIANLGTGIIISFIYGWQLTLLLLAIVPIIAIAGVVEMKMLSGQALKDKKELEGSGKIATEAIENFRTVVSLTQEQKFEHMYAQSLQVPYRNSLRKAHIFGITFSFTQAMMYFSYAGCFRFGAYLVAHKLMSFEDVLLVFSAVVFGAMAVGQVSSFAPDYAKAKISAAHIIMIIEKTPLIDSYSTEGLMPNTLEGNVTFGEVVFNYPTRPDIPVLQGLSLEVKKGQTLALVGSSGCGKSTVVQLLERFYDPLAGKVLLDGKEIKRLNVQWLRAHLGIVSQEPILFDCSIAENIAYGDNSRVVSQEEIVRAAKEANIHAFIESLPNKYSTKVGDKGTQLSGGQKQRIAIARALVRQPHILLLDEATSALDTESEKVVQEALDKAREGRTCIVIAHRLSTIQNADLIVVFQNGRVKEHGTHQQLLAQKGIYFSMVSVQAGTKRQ
# Method: (§5) Transport inhibition by 22 food additives was tested with Spodoptera frugiperda (Sf9) derived crude membrane vesicles expressing BCRP, MRP2, or P-gp produced in-house. […] Vesicles (50 μg total protein/well) were diluted in an assay buffer (40 mM MOPS–Tris pH 7.0, 60 mM KCl, and 6 mM MgCl2) with the substrate, and food additives (final concentration of 50 μM) in DMSO were added to the mixture. After preincubation, either the assay buffer or Mg-ATP solution (final concentration 4 mM) was added to the plate to start the reaction. The plate was incubated at 37 °C, and the reaction was stopped with an ice-cold washing mixture (40 mM MOPS-Tris pH 7.0 and 70 mM KCl). Samples were moved to a MultiScreenHTS-FB Plate Glass fiber 1.0 μm/0.65 μm Durapore filter plate (Millipore, USA), and the wells were washed five times with the ice-cold washing mixture. For BCRP and MRP2, the fluorescent substrate was eluted from the filters with 100 μL 0.1 M NaOH. For LY samples, an equal volume of 0.1 M HCl was added to neutralize the samples before fluorescence measurement. The amount of the substrate accumulated into the vesicles was measured by fluorescent detection using a Varioskan LUX microplate reader (Thermo Fisher Scientific, Finland) (Table ). The accumulation into the P-gp vesicles was measured with high-performance liquid chromatography (HPLC) (Agilent 110 series, Agilent Technologies, USA) after lysis and elution of the vesicle contents with 100 μL 3:1 methanol/water + 0.1% formic acid. The column used was a Poroshell 120 EC-C18 with a size of 4.6 × 100 mm and 2.7 μm particle size. Eluent A was 0.1% formic acid, and eluent B was acetonitrile. The flow rate of eluent was 1 mL/min, and the injection volume of samples was 10 μL. […] The retention time for NMQ was around 2.5 min.
# as §3, §4
# [10] = target: T1, OATP2B1; assay: HEK293 uptake assay, OATP2B1 (5-carboxyfluorescein substrate); format: cell-based; conditions: human, HEK293 cells transduced with recombinant OATP2B1 baculovirus, pH 6, probe 5-carboxyfluorescein 2 μM, food additive 50 μM, n = 1, read-out: inhibition of OATP2B1-mediated uptake
# Method: The inhibition of OATP2B1 was studied using a HEK293 cell-based uptake assay. HEK293 cells were cultured in DMEM supplemented with 10% FBS at 37 °C and 5% CO2 and seeded at 22,500 cells/well on 96-well plates coated with 0.1 mg/mL poly-D-lysine. After 24 h, the medium was replaced with a transduction mix (DMEM with 10% FBS, 5 mM sodium butyrate, and recombinant OATP2B1 or enhanced yellow fluorescent protein [eYFP, negative control] baculoviruses). The baculoviruses were produced as previously described. The uptake assay was performed after approximately 48 h. […] Test solutions also contained the substrate. Cells were washed with warm transport buffer and preincubated at 37 °C. Preincubation solutions were replaced with test solutions and incubated at 37 °C with shaking at 250 rpm. Transport was terminated by aspirating the test solution and washing the wells with an ice-cold transport buffer (150 μL) three times. Wells were left to dry, and cells were lysed with 0.1 M NaOH. […] Total protein concentration was measured from six random wells with a Pierce Coomassie (Bradford) Assay kit (Thermo Fisher Scientific) to ensure a similar protein concentration in the OATP2B1 and eYFP wells.
# [11] = target: T3, BCRP; assay: Vesicular transport assay, BCRP (Lucifer yellow substrate); format: biochemical; parameters: made in house; host or cells: Spodoptera frugiperda Sf9 cells, crude membrane vesicles; conditions: Sf9-derived crude membrane vesicles expressing BCRP, pH 7, probe Lucifer yellow 50 μM, food additive 50 μM, n = 1, read-out: inhibition of BCRP substrate accumulation
# Method: as §5, §3, §4
# [12] = in vitro; conditions: human, Caco-2, pH 7.4
# Method: as §1, §2
# [13] = pH 5.5, read-out: IC50, OATP2B1, pH 5.5
# [14] = pH 7.4, read-out: IC50, OATP2B1, pH 7.4
smiles,measurement,setting,value
COc1cc(S(=O)(=O)[O-])c(C)cc1N=Nc1c(O)ccc2cc(S(=O)(=O)[O-])ccc12.[Na+].[Na+] [allura red AC],IC50,[1]; [13],1.6 µM
same,IC50,[1]; [14],0.8 µM
same,Ki,[1],2.59 µM
same,effect on sulfasalazine permeability (P app),[2],None of the selected food additives showed any effect
same,effect on fexofenadine plasma levels (OATP2B1 inhibition),[3],decreases fexofenadine plasma levels
same,IC50,[4],20 µM
CCN(Cc1cccc(S(=O)(=O)[O-])c1)c1ccc(C(=C2C=CC(=[N+](CC)Cc3cccc(S(=O)(=O)[O-])c3)C=C2)c2ccccc2S(=O)(=O)[O-])cc1.[Na+].[Na+] [brilliant blue FCF],IC50,[1]; [13],18.4 µM
same,Ki,[1],13 µM
same,effect on sulfasalazine permeability (P app),[2],None of the selected food additives showed any effect
same,IC50,[4],3.22 µM
same,IC50,[5],1.97 µM
O=S(=O)([O-])c1ccc(N=Nc2cc(S(=O)(=O)[O-])c3ccccc3c2O)c2ccccc12.[Na+].[Na+] [carmoisine],IC50,[1]; [13],2.9 µM
same,IC50,[1]; [14],9.7 µM
same,effect on sulfasalazine permeability (P app),[2],None of the selected food additives showed any effect
same,sulfasalazine P app fold change,[2]; food additive 200 μM on both sides of the cell monolayer,≤ 2
same,IC50,[4],29 µM
same,IC50,[5],5.38 µM
COc1ccc(CCC(=O)c2c(O)cc(O[C@@H]3O[C@H](CO)[C@@H](O)[C@H](O)[C@H]3O[C@@H]3O[C@@H](C)[C@H](O)[C@@H](O)[C@H]3O)cc2O)cc1O [neohesperidin DC],IC50,[1]; [13],15.5 µM
same,IC50,[1]; [14],48.6 µM
same,Ki,[1],20.1 µM
same,effect on sulfasalazine permeability (P app),[2],None of the selected food additives showed any effect
same,IC50,[5],0.86 µM
same,P app in Caco-2 cells,[6],< 6 × 10^–6 cm/s
same,oral bioavailability,[7],~20%
CCCCCCCCOC(=O)c1cc(O)c(O)c(O)c1 [octyl gallate],inhibition of MRP2 substrate accumulation,[8],did not inhibit
same,inhibition of P-gp substrate accumulation,[9],did not inhibit
same,IC50,[4],19.2 µM
same,IC50,[5],10 µM
same,inhibition at 50 μM,[10],≥ 50%
same,inhibition at 50 μM,[11],≥ 50%
"O=C(O)c1cc(/N=N/c2ccc(S(=O)(=O)Nc3ccccn3)cc2)ccc1O [sulfasalazine, reference compound]","Papp A→B at 120 min, 500 μM",[12],≤ 0.1 ×10⁻⁶ cm/s
same,"Papp B→A at 120 min, 500 μM",[12],~6.5 ×10⁻⁶ cm/s
same,"efflux ratio at 120 min, 500 μM",[12],> 70
